A word on the melting point: it is the temperature of the solid-liquid transition.

Molecules are shown by their SMILES. A value given as a limit tells only on which side of the number the result lay.

The subject of data set [1] is human renal cancer cell lines (A-498). The experiment in a line: MTT cytotoxicity assay, A498. The data set is classed as cell-based. The note with it: for IC50: Homo sapiens, read-out: IC50 (concentration of 50% proliferation-inhibitory effect) A498, A498 cells, 48 h treatment, MTT, mean of three independent experiments; for potency in inhibiting proliferation of A498 human cancer cell line: summary statement on Table 1. Here is the method:
(§1) The human lung cancer cell lines (NCI-H226) and human renal cancer cell lines (A-498) were purchased from the ATCC (Manassas, Va.). The NCI-H226 and A498 cells were cultured in RPMI-1640 and DMEM medium (GIBCO) respectively, supplemented with 10% FBS, penicillin (100 unit/mL)/streptomycin (100 μg/mL) and 1% L-glutamine. All cells were grown in a humidified atmosphere containing 5% CO2 at 37° C. The cytotoxicity was assessed using 3-(4,5-dimethylthiazol-2-yl)-2,5-diphenyltetrazolium bromide (MTT) assay. NCI-H226 and A498 cells were seeded at 1×10^4 cells/well into 96-well plates. After 24 h incubation to allow for cell attachment, cells were treated with test compounds for 48 h. After treatment, cells were washed once with PBS and incubated with 1 mg/ml MTT (Sigma, St. Louis, Mo., USA) for 2 h. Then the formazan precipitate was dissolved in […] DMSO and the absorbance was measured on an ELISA reader at a best wavelength of 570 nm.
For orientation: Tetrazolium dyes change colour on reduction, which living cells bring about.

Data set [2] concerns human lung cancer cell lines (NCI-H226). The experiment in a line: MTT cytotoxicity assay, NCI-H226. The data set is classed as cell-based. The settings on record: for IC50: Homo sapiens, read-out: IC50 (concentration of 50% proliferation-inhibitory effect) NCI-H226, NCI-H226 cells, 48 h treatment, MTT, mean of three independent experiments; for potency in inhibiting proliferation of NCI-H226 human cancer cell line: summary statement on Table 1. Here is the method:
as §1

On to `O=C(O)c1ccc(-c2nn(Cc3ccccc3)c3cc[se]c23)o1` [Compound 59, 1-Benzyl-3-(5-hydroxycarbonyl-2-furyl)selenolo[3,2-c]pyrazole], for which the melting point fell in the range of 243 to 244 °C.

In turn, `OCc1ccc(-c2nn(-c3ccccc3)c3[se]ccc23)o1` showed a melting point of 136 to 138 °C.

`COC(=O)c1ccc(-c2nn(-c3ccc(Cl)cc3)c3cc[se]c23)o1` [Compound 38, 3-(5-Methoxycarbonyl-2-furyl)-1-(4-chlorophenyl)selenolo-[3,2-c]pyrazole] registered a melting point of 146 to 148 °C. Further, the IC50 in data set [1] is above 100 µM. Besides, the IC50 in data set [2] was above 100 µM.

Consider `O=C(O)c1ccc(-c2nn(-c3ccccc3)c3cc[se]c23)o1` [Compound 48, 3-(5-Hydroxycarbonyl-2-furyl)-1-phenylselenolo[3,2-c]pyrazole], for which the melting point is 234 to 237 °C.

`COC(=O)c1ccc(-c2nn(-c3ccccc3)c3cc[se]c23)o1` [Compound 34, 3-(5-Methoxycarbonyl-2-furyl)-1-phenylselenolo[3,2-c]-pyrazole] registered a melting point of 144 to 147 °C.

Molecule `COC(=O)c1ccc(-c2nn(-c3ccccc3Cl)c3cc[se]c23)o1` [Compound 36, 3-(5-Methoxycarbonyl-2-furyl)-1-(2-chlorophenyl)selenolo-[3,2-c]pyrazole] had a melting point of 134 to 136 °C. Further, the IC50 in data set [1] is above 100 µM. Besides, in data set [2], the IC50 is above 100 µM.

`O=C(O)CCC(=O)OCc1ccc(-c2nn(Cc3ccccc3)c3cc[se]c23)o1` [Compound 60, Succinic Acid mono-[5-(1-benzyl-selenolo[3,2-c]pyrazol-3-yl)furan-2-yl]methyl ester]: the melting point was 111 to 114 °C. In data set [1], the IC50 was 0.8 µM and the “potency in inhibiting proliferation of A498 human cancer cell line” value is listed as “significant potency”. In data set [2], the IC50 was 2.2 µM and the “potency in inhibiting proliferation of NCI-H226 human cancer cell line” value is “significant potency”.

As for `COC(=O)c1ccc(-c2nn(-c3ccccc3F)c3cc[se]c23)o1` [Compound 39, 3-(5-Methoxycarbonyl-2-furyl)-1-(2-fluorophenyl)selenolo-[3,2-c]pyrazole], the IC50 in data set [1] and in data set [2] was above 100 µM each time.

As to `OCc1ccc(-c2nn(-c3ccccc3)c3cc[se]c23)cc1` [Compound 68, 1-Phenyl-3-(p-hydroxymethylphenyl)selenolo[3,2-c]pyrazole], the melting point lay in the range of 133 to 134 °C.

`COC(=O)c1ccc(-c2nn(-c3ccccc3OC)c3cc[se]c23)o1` [Compound 41, 3-(5-Methoxycarbonyl-2-furyl)-1-(2-methoxyphenyl)selenolo-[3,2-c]pyrazole]: the melting point fell in the range of 72 to 76 °C. The IC50 in data set [1] was above 100 µM. Besides, the IC50 in data set [2] is above 100 µM.

Regarding `COC(=O)c1ccc(-c2nn(Cc3ccccc3)c3cc(C)[se]c23)o1` [Compound 56, 1-Benzyl-3-(5-methoxycarbonyl-2-furyl)-5-methylselenolo[3,2-c]pyrazole], the melting point lay in the range of 142 to 145 °C.

The molecule `COC(=O)c1ccc(-c2nn(-c3cccc(Cl)c3)c3cc[se]c23)o1` [Compound 37, 3-(5-Methoxycarbonyl-2-furyl)-1-(3-chlorophenyl)selenolo-[3,2-c]pyrazole] had a melting point of 107 to 109 °C. In data set [1], the IC50 is above 100 µM. Also, the IC50 in data set [2] is above 100 µM.

For the molecule `OCc1ccc(-c2nn(-c3ccccc3F)c3cc[se]c23)o1`, the melting point is 178 to 181 °C.

Regarding `Cc1cccc(-n2nc(-c3ccc(CO)o3)c3[se]ccc32)c1` [Compound 44, 3-(5-Hydroxymethyl-2-furyl)-1-5-methyl-phenylselenolo[3,2-c]pyrazole], in data set [1], the IC50 was 1.98 µM and the “potency in inhibiting proliferation of A498 human cancer cell line” value is given as “significant potency”. In data set [2], the IC50 was 25 µM and the “potency in inhibiting proliferation of NCI-H226 human cancer cell line” value is on record as “significant potency”.

For the molecule `COC(=O)c1ccc(-c2nn(-c3ccccc3)c3[se]ccc23)o1` [Compound 78, 3-(5-Methoxycarbonyl-2-furyl)-1-phenylselenolo[2,3-c]-pyrazole], the melting point lay within 167 to 169 °C. Moreover, the IC50 in data set [1] was above 100 µM. Besides, the IC50 in data set [2] was above 100 µM.

Turning to `OCc1ccc(-c2nn(Cc3ccccc3)c3cc[se]c23)o1` [Compound 57, 1-Benzyl-3-(5-hydroxymethyl-2-furyl)selenolo[3,2-c]pyrazole], the melting point was in the range of 126 to 129 °C. In data set [1], the IC50 came to 0.4 µM and the “potency in inhibiting proliferation of A498 human cancer cell line” value is “significant potency”. For the same molecule, in data set [2], the IC50 was 1.4 µM and the “potency in inhibiting proliferation of NCI-H226 human cancer cell line” value is “significant potency”.

Molecule `COC(=O)c1ccc(-c2nn(Cc3ccccc3)c3cc[se]c23)o1` [Compound 55, 1-Benzyl-3-(5-methoxycarbonyl-2-furyl)selenolo[3,2-c]-pyrazole] displayed a melting point of 130 to 131 °C.

With `OCc1ccc(-c2nn(Cc3ccccc3)c3cc[se]c23)cc1` [Compound 69, 1-Benzyl-3-(p-hydroxymethylphenyl)selenolo[3,2-c]pyrazole], the melting point was in the range of 158 to 160 °C.

`Cc1cc2c([se]1)c(-c1ccc(C(=O)O)o1)nn2-c1ccccc1` [Compound 49, 3-(5-Hydroxycarbonyl-2-furyl)-1-phenyl-5-methylselenolo[3,2-c]pyrazole] yielded a melting point of 236 to 239 °C.

Take `COC(=O)c1ccc(-c2nn(-c3ccc(OC)cc3)c3cc[se]c23)o1` [Compound 42, 3-(5-Methoxycarbonyl-2-furyl)-1-(4-methoxyphenyl)selenolo-[3,2-c]pyrazole]: the melting point is 89 to 92 °C. In addition, the IC50 in data set [1] is above 100 µM. The IC50 in data set [2] is above 100 µM.

Molecule `COC(=O)c1ccc(-c2nn(Cc3ccccc3)c3[se]ccc23)o1` [Compound 79, 1-Benzyl-3-(5-methoxycarbonyl-2-furyl)selenolo[2,3-c]pyrazole] had a melting point of 121 to 123 °C. Also, the IC50 in data set [1] was above 100 µM. Besides, the IC50 in data set [2] was above 100 µM.

In the case of `COC(=O)c1ccc(-c2nn(-c3ccccc3)c3cc(C)[se]c23)o1` [Compound 35, 3-(5-Methoxycarbonyl-2-furyl)-1-phenyl-5-methylselenolo-[3,2-c]pyrazole], the melting point was 155 to 157 °C.

With `OCc1ccc(-c2nn(Cc3ccccc3)c3[se]ccc23)o1` [Compound 81, 1-Benzyl-3-(5-Hydroxymethyl-2-furyl)selenolo[2,3-c]pyrazole], the melting point is 130.2 to 131.3 °C. In data set [1], the IC50 is 0.14 µM and the “potency in inhibiting proliferation of A498 human cancer cell line” value is “significant potency”. The “potency in inhibiting proliferation of NCI-H226 human cancer cell line” value in data set [2] is listed as “significant potency”.

For the molecule `COC(=O)c1ccc(-c2nn(-c3ccc(F)cc3)c3cc[se]c23)o1` [Compound 40, 3-(5-Methoxycarbonyl-2-furyl)-1-(4-fluorophenyl)selenolo-[3,2-c]pyrazole], the IC50 in data set [1] and in data set [2] was above 100 µM each time.

Regarding `Cc1cc2c([se]1)c(-c1ccc(CO)o1)nn2Cc1ccccc1` [Compound 58, 1-Benzyl-3-(5-hydroxymethyl-2-furyl)-5-methylselenolo[3,2-c]pyrazole], the melting point lay in the range of 147 to 148 °C.

`COC(=O)c1ccc(-c2nn(-c3ccccc3)c3cc[se]c23)cc1` [Compound 66, 1-Phenyl-3-(p-methoxycarbonylphenyl)selenolo[3,2-c]pyrazole] registered a melting point of 165 to 166 °C.

Molecule `COC(=O)c1ccc(-c2nn(Cc3ccccc3)c3cc[se]c23)cc1` [Compound 67, 1-Benzyl-3-(p-methoxycarbonylphenyl)selenolo[3,2-c]pyrazole] yielded a melting point of 150 to 153 °C.

For the origin of these results see patent US8053459B1, “Selenolopyrazole derivatives and use thereof as anticancer agents” (China Medical University, priority 2010, dated 2011).
